Source: patent US4146501A, “Process for isolating and purifying taste bud receptors for screening and evaluating tastants” (priority 1976, dated 1979)
Entries after “also recorded” stand apart in the source; their conditions may differ. Where two headings read alike, the source gives them in different places.

Experiments:
[1] = system: taste bud subfraction P4(B); test: Binding inhibition of 14C sucrose by various substances; set-up: species or system bovine
[2] = molecular target: taste bud P4(B) subfractions; test: Specific binding: competition of 14C sugars or SSS with unlabeled homologous and heterologous sugars, Scatchard analysis; set-up: species or system bovine; settings: for Kd: mean ± 1 SEM; for specific binding (competition of 14C sugar or SSS with homologous unlabeled sugar or SSS): taste bud P4(B), FIG. 7; for competition of unlabeled sugar with fructose binding / competition of unlabeled sugar with sucrose binding / competition of unlabeled sugar with glucose binding: FIG. 8, in words; for Inhibition (%) of 14C Fructose binding by unlabelled sugar / Inhibition (%) of 14C Glucose binding by unlabelled sugar / Inhibition (%) of 14C Sucrose binding by unlabelled sugar: maximal concentration of unlabelled sugar, range of values; for Relative Binding Inhibition: homologous set at 100
[3] = system: non-taste bud bearing epithelial tissue filtrates and B subfractions [P2,4(B)]; test: Binding of 14C sugars to non-taste bud bearing epithelial tissue filtrates and B subfractions (control); set-up: species or system bovine; settings: Epi; for 14C sugar binding: 30 min at 30° C
Description: (§1) The following procedure was utilized in tastant evaluation according to the process of this invention: Protein concentrations were determined by the methods of Lowry et al., (1951) J. Biol. […] According to density, physical appearance as determined by using electron microscopic morphology enzymatic activity and chemical analysis, B subfractions from taste buds and epithelial tissues achieved the greatest membrane purification compared with other subfractions. Among the taste bud B subfractions, P4(B) was morphologically more homogeneous with respect to membranes than P3(B) whereas P2(B) was the least homogeneous of all. Epithelial tissue B subfractions contained mainly fibrous tissue and few differences were found in morphology, density, enzymatic activity or chemical analysis between P2(B) or P4(B) subfractions. Taste bud and epithelial tissue D subfractions contained relatively few membrane fragments compared to the large amount of other cellular organelles present and therefore were not included in these studies. […] Each filtrate and subfraction was washed three times with calcium free, 0.2 M Krebs-Ringer bicarbonate (KRB) pH 7.4, suspended in the same buffer in a final volume of 2 ml and frozen in liquid nitrogen. No detectable change in binding characteristics from suspensions of taste bud or epithelial tissue fractions was observed after storage at -80° for as long as two months. All binding studies were carried out in plastic micro test tubes in a constant temperature shaking bath. For these studies KRB, suspensions of the initial filtrates, subfractions and ^14 C labeled and/or unlabeled sugars were incubated in a final volume of 100 μl. After incubation the tubes were placed in an ice bath, centrifuged, the supernatant aspirated and 10 μl KRB layered on top of the pellet. The KRB was then aspirated, the top of the test tube cut off with a razor blade just above the bellet, placed into 10 ml Aquasol (New England Nuclear Corp., Boston, Mass.) and the radioactivity determined in a liquid scintillation spectrophotometer. Controls, without filtrates or subfractions, were also included. […] The tubes were then placed in an ice bath for 3 minutes, and then centrifuged at 15,000 rpm for 6 min.

[4] = system: taste bud filtrates and B subfractions [P2,3,4(B)]; test: Binding of 14C sugars to taste bud filtrates and B subfractions; set-up: species or system bovine; settings: for 14C sugar binding / Relative enrichment of sugar binding compared to the initial filtrate: Bud; for 14C sugar binding: 30 min at 30° C
Description: as §1

[5] = cited from earlier work
[6] = system: taste bud P4(B) subfractions; test: Displacement of bound 14C sucrose by unlabeled sucrose; assay type: binding, bovine; settings: after addition of unlabeled sucrose (0.01-1 mM), FIG. 5; 20 min
Description: (§2) All binding studies were carried out in plastic micro test tubes in a constant temperature shaking bath. For these studies KRB, suspensions of the initial filtrates, subfractions and ^14 C labeled and/or unlabeled sugars were incubated in a final volume of 100 μl. After incubation the tubes were placed in an ice bath, centrifuged, the supernatant aspirated and 10 μl KRB layered on top of the pellet.
(§3) The KRB was then aspirated, the top of the test tube cut off with a razor blade just above the bellet, placed into 10 ml Aquasol (New England Nuclear Corp., Boston, Mass.) and the radioactivity determined in a liquid scintillation spectrophotometer. Controls, without filtrates or subfractions, were also included. These controls represent background radioactivity composed mainly of ^14 C sugars bound to the walls of the plastic test tubes. This background radioactivity was always found to be less than 1% of the lowest level obtained in any study with added tissue fractions. Calculations of ^14 C sugar binding also included a correction for non-specific binding (i.e., ^14 C sugar binding not inhibited by an excess of the unlabeled homologous sugar, which occurred when tissue suspensions were used. This value (40%) was the mean calculated from the results of 56 duplicate experiments. […]

[7] = behavioral basis, cow; cited from earlier work
[8] = system: taste bud subfraction P4(B); test: Time and temperature effects on 14C sucrose binding; set-up: species or system bovine; settings: 26 μM 14C sucrose
Description: as §2, §3

[9] = system: epithelial P4(B) subfractions; test: Displacement of bound 14C sucrose by unlabeled sucrose (epithelial control); assay type: binding, bovine
Description: as §2, §3

[10] = system: epithelial tissue P4(B) subfractions; test: Specific binding: competition of 14C sugars or SSS with unlabeled homologous sugars (epithelial control); set-up: species or system bovine; settings: FIG. 7
Description: as §2, with “pellet. The KRB was then aspirated, the top of the test tube cut off with a razor blade just above the bellet, placed into 10 ml Aquasol (New England Nuclear Corp., Boston, Mass.) and the radioactivity determined in a liquid scintillation spectrophotometer. Controls, without filtrates or subfractions, were also included.” for “pellet.”

[11] = non-linear Scatchard plot, primary class of binding sites, read-out: Kd (dissociation constant), K1
[12] = non-linear Scatchard plot, secondary class of binding sites, read-out: Kd (dissociation constant), K2
[13] = secondary class of binding sites
[14] = Filtrate, 14C glucose 200 μM, fructose 400 μM, sucrose 26 μM
[15] = Scatchard plot, single class of sites, read-out: Kd (dissociation constant)
[16] = section FRUCTOSE (as the 14C sugar per footnote) with each unlabelled sugar
[17] = section SUCROSE (as the 14C sugar per footnote) with each unlabelled sugar

SMILES | specific binding (competition of 14C sugar or SSS with homologous unlabeled sugar or SSS) [2] | 14C sugar binding [3, 14] [cpm/mg protein] | Relative enrichment of sugar binding compared to the initial filtrate ([3]; P2(B)) | 14C sugar binding ([3]; P2(B)) [cpm/mg protein] | Relative enrichment of sugar binding compared to the initial filtrate ([3]; P4(B)) | 14C sugar binding ([3]; P4(B)) [cpm/mg protein] | 14C sugar binding [4, 14] [cpm/mg protein] | Relative enrichment of sugar binding compared to the initial filtrate ([4]; P2(B)) | 14C sugar binding ([4]; P2(B)) [cpm/mg protein] | Relative enrichment of sugar binding compared to the initial filtrate ([4]; P3(B)) | 14C sugar binding ([4]; P3(B)) [cpm/mg protein] | Relative enrichment of sugar binding compared to the initial filtrate ([4]; P4(B)) | 14C sugar binding ([4]; P4(B)) [cpm/mg protein] | Kd [2, 15] [mM] | Inhibition (%) of 14C Fructose binding by unlabelled sugar [2] | Inhibition (%) of 14C Glucose binding by unlabelled sugar [2] | Inhibition (%) of 14C Sucrose binding by unlabelled sugar [2] | Relative Binding Inhibition [2, 17] [%] | q (concentration of sugar or SSS bound per mg subfraction protein) ([2]; single class of sites) [mM/mg protein] | Recognition thresholds in man [5] [M] | other results
[Cl-].[Cl-].[Zn+2] [ZnCl2] | – | – | – | – | – | – | – | – | – | – | – | – | – | – | – | – | – | – | – | – | sucrose binding activity restored, of the initial activity measured in the absence of EDTA ([1]; 5 mM EDTA plus 20 mM Zn++): about 85%
O=C1NS(=O)(=O)c2ccccc21 [SACCHARINE, saccharine] | occurred | – | – | – | – | – | – | – | – | – | – | – | – | – | – | – | – | – | – | – | Kd [2, 11]: 18.3 ± 3.9 mM; Kd [2, 12]: 66.2 ± 6.8 mM; q (concentration of sugar or SSS bound per mg subfraction protein), K1 ([2]; primary class of binding sites): 2.7 ± 1.0 mM/mg protein; q (concentration of sugar or SSS bound per mg subfraction protein), K2 [2, 13]: 6.4 ± 0.4 mM/mg protein
OC[C@H]1OC(O)[C@H](O)[C@@H](O)[C@@H]1O (stereo partly shown) [Glucose, glucose] | occurred | 22000 | 1.3 | 29000 | 0.8 | 17000 | 37000 | 3.2 | 120000 | 9.7 | 360000 | 9.4 | 348000 | 3.4 ± 1.1 | 14-20% | 70-80% | 14-20% | 32 | 2.5 ± 0.5 | 0.01 to 0.03 | competition of unlabeled sugar with fructose binding [2]: did not compete; competition of unlabeled sugar with sucrose binding [2]: did not compete; Inhibition (%) of 14C Glucose binding by unlabelled sugar ([2]; listed as glucose): eighty; Relative Binding Inhibition [2, 16]: 51%; Relative Binding Inhibition ([2]; section GLUCOSE (as the 14C sugar per footnote) with each unlabelled sugar): 100%
O=C(O)CN(CCN(CC(=O)O)CC(=O)O)CC(=O)O [EDTA, ethylenediaminetetraacetic acid] | – | – | – | – | – | – | – | – | – | – | – | – | – | – | – | – | – | – | – | – | inhibition of 14C sucrose binding [1]: approximately 40%
[Cl-].[Na+] [NaCl] | – | – | – | – | – | – | – | – | – | – | – | – | – | – | – | – | – | – | – | – | inhibition of 14C sucrose binding [1]: ~50%
O=S(=O)(O)NC1CCCCC1 [CYCLAMATE, cyclamate] | occurred | – | – | – | – | – | – | – | – | – | – | – | – | – | – | – | – | – | – | – | Kd [2, 11]: 11.7 ± 2.4 mM; Kd [2, 12]: 32.6 ± 3.9 mM; q (concentration of sugar or SSS bound per mg subfraction protein), K1 ([2]; primary class of binding sites): 4.0 ± 0.9 mM/mg protein; q (concentration of sugar or SSS bound per mg subfraction protein), K2 [2, 13]: 6.6 ± 1.4 mM/mg protein
OC[C@H]1O[C@@](CO)(O[C@H]2O[C@H](CO)[C@@H](O)[C@H](O)[C@H]2O)[C@@H](O)[C@@H]1O [Sucrose, sucrose] | occurred | 33000 | 1.1 | 37000 | 0.5 | 18000 | 36000 | 3.1 | 113000 | 7.0 | 255000 | 23.8 | 868000 | 1.1 ± 0.4 | 50-60% | 60-65% | 70-80% | 100 | 51 ± 8 | 0.01 to 0.03 | maximum displacement of the 14C sucrose initially bound [6]: about 80%; increase in sugar binding compared to the initial filtrate ([4]; taste bud subfraction P3(B)): 7 fold; increase in sugar binding compared to the initial filtrate ([4]; taste bud subfraction P4(B)): 24 fold; competition of unlabeled sugar with fructose binding [2]: competed with both glucose and fructose; competition of unlabeled sugar with glucose binding [2]: competed with both glucose and fructose; Inhibition (%) of 14C Sucrose binding by unlabelled sugar ([2]; listed as sucrose): about 80%; bovine discrimination thresholds [7]: 0.03 M; detection thresholds in normal man ([5]; reported as low as): ≥ 5 mM; increase of sucrose binding activity following increase in incubation temperature from 0° C. to 30° C. ([8]; FIG. 3): four; time to plateau of 14C sucrose binding ([8]; at 30° C.): about 25 min; reversal of 14C sucrose binding by excess unlabeled sucrose [9]: could not be reversed
OC[C@H]1O[C@@H](O[C@H]2[C@H](O)[C@@H](O)C(O)O[C@@H]2CO)[C@H](O)[C@@H](O)[C@H]1O (stereo partly shown) [lactose] | did not compete; also recorded: did not bind specifically | – | – | – | – | – | – | – | – | – | – | – | – | – | – | – | – | – | – | – | specific binding (competition of 14C sugar or SSS with homologous unlabeled sugar or SSS) [10]: did not compete; also recorded: did not bind specifically
NC(N)=O [urea] | – | – | – | – | – | – | – | – | – | – | – | – | – | – | – | – | – | – | – | – | inhibition of 14C sucrose binding ([1]; urea 5M, 26 μM 14C sucrose): ~30%
O=C(CO)[C@@H](O)[C@H](O)[C@H](O)CO [Fructose, fructose] | occurred | 88000 | 1.1 | 95000 | 0.9 | 78000 | 153000 | 3.7 | 569000 | 8.5 | 1.3e+06 | 17.8 | 2.72e+06 | 1.8 ± 0.9 | 70-80% | 36-40% | 14-20% | 59 | 10.5 ± 1.2 | 0.01 to 0.03 | competition of unlabeled sugar with glucose binding [2]: competed with glucose; competition of unlabeled sugar with sucrose binding [2]: did not; Inhibition (%) of 14C Fructose binding by unlabelled sugar ([2]; listed as fructose): about 80%; Relative Binding Inhibition [2, 16]: 100%; bovine discrimination thresholds [7]: 0.06 M
